Data: patent US20120088800A1, “2-(SUBSTITUTED) (ARYLMETHYL, ARYLOXY and ARYLTHIO))-N-(SUBSTITUTED PYRIDIN-2-YL)-2-(SUBSTITUTED ARYL) COMPOUNDS AS SUBTYPE-SELECTIVE MODULATORS OF SPHINGOSINE-1-PHOSPHATE-3 (S1P3) RECEPTORS” (ALLERGAN, INC., priority 2009, published 2012)
Structures can show the parent of a compound that is named as a salt.

Legend:
Format in all cases: cell-based
[1] = target: T1, S1P2 (Homo sapiens, UniProt O95136); assay: FLIPR calcium assay, cells expressing S1P2 and a G-protein; conditions: fluo-4 calcium signal compared to sphingosine 1-phosphate
T1 construct: expressed in transfected cells
T1 sequence (O95136 whole entry, species assumed): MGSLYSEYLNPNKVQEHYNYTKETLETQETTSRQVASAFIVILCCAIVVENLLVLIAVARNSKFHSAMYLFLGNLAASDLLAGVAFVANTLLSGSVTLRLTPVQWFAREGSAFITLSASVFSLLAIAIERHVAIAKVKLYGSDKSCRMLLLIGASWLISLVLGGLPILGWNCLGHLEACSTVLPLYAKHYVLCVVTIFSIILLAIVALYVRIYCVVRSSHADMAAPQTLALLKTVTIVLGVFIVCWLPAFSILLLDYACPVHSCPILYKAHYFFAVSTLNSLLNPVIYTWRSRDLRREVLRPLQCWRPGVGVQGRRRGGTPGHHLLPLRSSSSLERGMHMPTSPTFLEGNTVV
Source text: (§1) Novel compounds having this general structure were synthesized and tested for sphingosine 1-phosphate receptor (S1P) activity using the FLIPR assay. Cells expressing the receptor of interest (S1P1, S1P2 or S1P3) and a G-protein (Gqi5 or G16) are loaded with fluo-4, a calcium sensitive dye. After removal of excess dye by washing, the cells are placed in the FLIPR TETRA instrument. Baseline fluorescence readings are taken prior to addition the compound to be tested. Agonists will trigger the receptor to interact with the G-protein, leading to an increase in intracellular calcium. The increase in intracellular calcium causes an increase in the fluorescence of the cells, due to the presence of fluo-4. This fluorescence increase is recorded by the FLIPR TETRA. After the calcium transient signal has decreased towards baseline, the standard agonist sphingosine 1-phosphate is added. If the test compound is an antagonist, an initial calcium signal will not be generated and the antagonist will prevent the generation of a calcium signal from sphingosine 1-phosphate. The level of fluorescence is compared to that of sphingosine 1-phosphate, and the EC50 or IC50 of the compound determined by curve fitting.

[2] = target: T2, S1P3 (Homo sapiens, UniProt Q99500); assay: FLIPR calcium assay, cells expressing S1P3 and a G-protein; conditions: for EC50: fluo-4 calcium signal compared to sphingosine 1-phosphate, antagonist mode; for FLIPR (% Antagonism) S1P3: value in parentheses below the EC50, antagonism of sphingosine 1-phosphate signal
T2 construct: expressed in transfected cells
T2 sequence (Q99500 whole entry, species assumed): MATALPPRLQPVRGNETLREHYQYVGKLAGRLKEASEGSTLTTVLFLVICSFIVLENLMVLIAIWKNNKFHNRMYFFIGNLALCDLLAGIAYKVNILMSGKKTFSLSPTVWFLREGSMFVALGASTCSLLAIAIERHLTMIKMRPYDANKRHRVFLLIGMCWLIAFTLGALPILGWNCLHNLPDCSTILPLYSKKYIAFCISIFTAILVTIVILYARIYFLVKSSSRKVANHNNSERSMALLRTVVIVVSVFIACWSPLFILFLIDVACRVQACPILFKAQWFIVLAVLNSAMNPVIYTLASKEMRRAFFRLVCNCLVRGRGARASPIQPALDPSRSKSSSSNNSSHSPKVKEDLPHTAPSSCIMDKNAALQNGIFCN
Source text: as §1

[3] = target: T3, S1P1 (Homo sapiens, UniProt P21453); assay: FLIPR calcium assay, cells expressing S1P1 and a G-protein; conditions: fluo-4 calcium signal compared to sphingosine 1-phosphate
T3 construct: expressed in transfected cells
T3 sequence (P21453 whole entry, species assumed): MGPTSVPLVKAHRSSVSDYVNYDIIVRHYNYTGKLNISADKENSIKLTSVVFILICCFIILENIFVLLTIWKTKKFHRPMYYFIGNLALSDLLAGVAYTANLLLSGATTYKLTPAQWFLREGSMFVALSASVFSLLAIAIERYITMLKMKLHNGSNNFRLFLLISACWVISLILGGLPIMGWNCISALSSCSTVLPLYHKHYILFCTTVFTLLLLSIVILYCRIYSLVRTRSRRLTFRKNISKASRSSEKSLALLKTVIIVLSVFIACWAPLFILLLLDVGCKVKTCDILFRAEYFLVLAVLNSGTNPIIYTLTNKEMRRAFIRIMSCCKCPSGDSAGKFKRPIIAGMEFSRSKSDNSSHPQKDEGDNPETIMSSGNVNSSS
Source text: as §1

SMILES | EC50 [1] | EC50 [2] | FLIPR (% Antagonism) S1P3 [2] | EC50 [3]
O=C(Nc1ccc(Cl)cn1)C(Sc1ccc(Cl)cc1)c1ccccc1 (centres unmarked) [Example 27, 2-(4-chlorophenylthio)-N-(5-chloropyridin-2-yl)-2-phenylacetamide] | > 8300 nM | 160 nM | (101) % | > 8300 nM
O=C(Nc1ccc(Cl)cn1)C(Sc1ccc(Cl)cc1)c1ccc(F)cc1 (centres unmarked) [Example 26, 2-(4-chlorophenylthio)-N-(5-chloropyridin-2-yl)-2-(4-fluorophenyl)acetamide] | > 8300 nM | 166 nM | (102) % | > 8300 nM
Cl.O=C(Nc1ccc(F)cn1)C(Oc1ccc(Br)cc1)c1ccc(Cl)cc1 (centres unmarked) [Example 4, 2-(4-bromophenoxy)-2-(4-chlorophenyl)-N-(5-fluoropyridin-2-yl)acetamide hydrochloride] | > 8300 nM | 325 nM | (97) % | > 8300 nM
O=C(Nc1ccc(Br)cn1)C(Sc1ccc(Cl)c(Cl)c1)c1ccccc1 (centres unmarked) [Example 18, N-(5-bromopyridin-2-yl)-2-(3,4-dichlorophenylthio)-2-phenylacetamide] | > 8300 nM | 133 nM | (97) % | > 8300 nM
O=C(Nc1ccc(Br)cn1)C(Sc1ccccc1)c1ccccc1 (centres unmarked) [Example 10, N-(5-bromopyridin-2-yl)-2-phenyl-2-(phenylthio)acetamide hydrochloride] | > 8300 nM | 256 nM | (100) % | > 8300 nM
Cc1cc(OC(C(=O)Nc2ccc(Cl)cn2)c2ccc(Cl)cc2)ccc1Cl.Cl (centres unmarked) [Example 1, 2-(4-chloro-3-methylphenoxy)-2-(4-chlorophenyl)-N-(5-chloropyridin-2-yl)acetamide hydrochloride] | > 8300 nM | 128 nM | (99) % | > 8300 nM
Cc1ccc(SC(C(=O)Nc2ccc(Cl)cn2)c2ccc(Cl)cc2)cc1C (centres unmarked) [Example 15, 2-(4-chlorophenyl)-N-(5-chloropyridin-2-yl)-2-(3,4-dimethylphenylthio)acetamide hydrochloride] | > 8300 nM | 240 nM | (98) % | > 8300 nM
Cl.O=C(Nc1ccc(F)cn1)C(Oc1ccc(Cl)cc1)c1ccc(Cl)cc1 (centres unmarked) [Example 7, 2-(4-chlorophenoxy)-2-(4-chlorophenyl)-N-(5-fluoropyridin-2-yl)acetamide hydrochloride] | > 8300 nM | 316 nM | (97) % | > 8300 nM
Cc1ccc(SC(C(=O)Nc2ccc(Cl)cn2)c2ccc(Cl)cc2)cc1 (centres unmarked) [Example 17, 2-(4-chlorophenyl)-N-(5-chloropyridin-2-yl)-2-(p-tolylthio)acetamide hydrochloride] | > 8300 nM | 322 nM | (99) % | > 8300 nM
COc1ccc(OC(C(=O)Nc2ccc(Cl)cn2)c2ccc(Cl)cc2)cc1.Cl (centres unmarked) [Example 3, 2-(4-chlorophenyl)-N-(5-chloropyridin-2-yl)-2-(4-methoxyphenoxy)acetamide hydrochloride] | > 8300 nM | 166 nM | (98) % | > 8300 nM
O=C(Nc1ccc(Br)cn1)C(Sc1ccc(F)cc1)c1ccc(Cl)cc1 (centres unmarked) [Example 14, N-(5-bromopyridin-2-yl)-2-(4-chlorophenyl)-2-(4-fluorophenylthio)acetamide hydrochloride] | > 8300 nM | 127 nM | (99) % | > 8300 nM
N#Cc1ccc(NC(=O)C(Cc2ccccc2)c2ccccc2)nc1 (centres unmarked) [Example 34, N-(5-cyanopyridin-2-yl)-2,3-diphenylpropanamide hydrochloride] | > 8300 nM | 1500 nM | (52) % | > 8300 nM
O=C(Nc1ccc(Br)cn1)C(Cc1ccccc1)c1ccccc1 (centres unmarked) [Example 30, N-(5-bromopyridin-2-yl)-2,3-diphenylpropanamide hydrochloride] | > 8300 nM | 162 nM | (100) % | > 8300 nM
Cc1ccc(OC(C(=O)Nc2ccc(Br)cn2)c2ccc(Cl)cc2)cc1.Cl (centres unmarked) [Example 2, N-(5-bromopyridin-2-yl)-2-(4-chlorophenyl)-2-(p-tolyloxy)acetamide hydrochloride] | > 8300 nM | 185 nM | (100) % | > 8300 nM
O=C(Nc1ccc(Br)cn1)C(c1ccc(Cl)cc1)c1ccc(Cl)cc1 [Example 33, N-(5-bromopyridin-2-yl)-2,2-bis(4-chlorophenyl)acetamide] | > 8300 nM | 1720 nM | (94) % | > 8300 nM
Cl.O=C(Nc1ccc(Br)cn1)C(Oc1ccc(Br)cc1)c1ccc(Cl)cc1 (centres unmarked) [Example 5, 2-(4-bromophenoxy)-N-(5-bromopyridin-2-yl)-2-(4-chlorophenyl)acetamide hydrochloride] | > 8300 nM | 90 nM | (97) % | > 8300 nM

Now from value to compound:

EC50 [1] | EC50 [2] | FLIPR (% Antagonism) S1P3 [2] | EC50 [3] | SMILES
> 8300 nM | 256 nM | (100) % | > 8300 nM | Cc1ccc(SC(C(=O)Nc2ccc(Br)cn2)c2ccc(Cl)cc2)cc1 (centres unmarked) [Example 16, N-(5-bromopyridin-2-yl)-2-(4-chlorophenyl)-2-(p-tolylthio)acetamide hydrochloride]
> 8300 nM | 230 nM | (99) % | > 8300 nM | O=C(Nc1ccc(Cl)cn1)C(Sc1ccc(Br)cc1)c1ccccc1 (centres unmarked) [Example 24, 2-(4-bromophenylthio)-N-(5-chloropyridin-2-yl)-2-phenylacetamide]
> 8300 nM | 104 nM | (97) % | > 8300 nM | O=C(Nc1ccc(Br)cn1)C(Sc1ccc(Cl)cc1)c1ccc(Cl)cc1 (centres unmarked) [Example 22, N-(5-bromopyridin-2-yl)-2-(4-chlorophenyl)-2-(4-chlorophenylthio)acetamide hydrochloride]
> 8300 nM | 198 nM | (101) % | > 8300 nM | O=C(Nc1ccc(Cl)cn1)C(Cc1ccccc1)c1ccccc1 (centres unmarked) [Example 29, N-(5-chloropyridin-2-yl)-2,3-diphenylpropanamide hydrochloride]
> 8300 nM | 27 nM | (97) % | > 8300 nM | Cl.O=C(Nc1ccc(Cl)cn1)C(Oc1ccc(Cl)cc1)c1ccc(Cl)cc1 (centres unmarked) [Example 9, 2-(4-chlorophenoxy)-2-(4-chlorophenyl)-N-(5-chloropyridin-2-yl)acetamide hydrochloride]
> 8300 nM | 286 nM | (99) % | > 8300 nM | O=C(Nc1ccc(Br)cn1)C(Sc1ccc(Br)cc1)c1ccccc1 (centres unmarked) [Example 25, 2-(4-bromophenylthio)-N-(5-bromopyridin-2-yl)-2-phenylacetamide]
> 8300 nM | 361 nM | (100) % | > 8300 nM | COc1ccc(SC(C(=O)Nc2ccc(Br)cn2)c2ccc(Cl)cc2)cc1.Cl (centres unmarked) [Example 11, N-(5-bromopyridin-2-yl)-2-(4-chlorophenyl)-2-(4-methoxyphenylthio)acetamide hydrochloride]
> 8300 nM | 376 nM | (99) % | > 8300 nM | COc1ccc(SC(C(=O)Nc2ccc(Cl)cn2)c2ccc(Cl)cc2)cc1 (centres unmarked) [Example 12, 2-(4-chlorophenyl)-N-(5-chloropyridin-2-yl)-2-(4-methoxyphenylthio)acetamide hydrochloride]
> 8300 nM | 166 nM | (97) % | > 8300 nM | O=C(Nc1ccc(Br)cn1)C(Sc1cccc(Cl)c1)c1ccccc1 (centres unmarked) [Example 20, N-(5-bromopyridin-2-yl)-2-(3-chlorophenylthio)-2-phenylacetamide hydrochloride]
> 8300 nM | 208 nM | (97) % | > 8300 nM | O=C(Nc1ccc(Cl)cn1)C(Sc1cccc(Cl)c1)c1ccccc1 (centres unmarked) [Example 21, 2-(3-chlorophenylthio)-N-(5-chloropyridin-2-yl)-2-phenylacetamide hydrochloride]
> 8300 nM | 198 nM | (99) % | > 8300 nM | O=C(Nc1ccc(Cl)cn1)C(Sc1ccc(F)cc1)c1ccc(Cl)cc1 (centres unmarked) [Example 13, 2-(4-chlorophenyl)-N-(5-chloropyridin-2-yl)-2-(4-fluorophenylthio)acetamide hydrochloride]
> 8300 nM | 201 nM | (100) % | > 8300 nM | Cc1nc(NC(=O)C(Cc2ccccc2)c2ccccc2)ccc1Br (centres unmarked) [Example 31, N-(5-bromo-6-methylpyridin-2-yl)-2,3-diphenylpropanamide hydrochloride]
> 8300 nM | 173 nM | (97) % | > 8300 nM | O=C(Nc1ccc(Cl)cn1)C(Sc1ccc(Cl)cc1)c1ccc(Cl)cc1 (centres unmarked) [Example 23, 2-(4-chlorophenyl)-2-(4-chlorophenylthio)-N-(5-chloropyridin-2-yl)acetamide hydrochloride]
